Molecules are shown by their SMILES.

This data set can be described thus: In vivo dog pharmacokinetics. The note with it: for AUC0-72 h: beagle dogs N=3.
Where [1] appears, read: plasma level of the labelled analyte after oral dose of Compound B (9.7 mg-eq/kg), powder in capsule.

Regarding `Cn1ccc2c([C@H](Nc3cc(Cl)c4ncc(C#N)c(NCC(C)(C)C)c4c3)c3cn(C45CC(C4)C5)nn3)cccc2c1=O` [Compound A], the “AUC0-72 h for Compound A in plasma, dosing with Compound B compared with equivalent dose of Compound A” value (beagle dogs, powder in capsule, after dosing with Compound B versus Compound A) is “higher”.
As for `Cn1ccc2c([C@@H](c3cn(C45CC(C4)C5)nn3)N(C(=O)OCOP(=O)(O)O)c3cc(Cl)c4ncc(C#N)c(NCC(C)(C)C)c4c3)cccc2c1=O` [Compound B], the AUC0-72 h entry under setting [1] is reported as “BLQ”.
As to `Cn1ccc2c([C@@H](c3cn(C45CC(C4)C5)nn3)N(C(=O)OCCCOP(=O)(O)O)c3cc(Cl)c4ncc(C#N)c(NCC(C)(C)C)c4c3)cccc2c1=O` [Compound C], the “In vivo conversion after dosing” value (beagle dogs, Compound C solution formulation, 72 hour period) is “converted in vivo to both Compound D and Compound A in measurable amounts”. For the same molecule, where the note is “plasma level of the labelled analyte after oral dose of Compound C (3 mg-eq/kg), 3 mg/mL solution”, the AUC0-72 h entry is on record as “BLQ”.
For `Cn1ccc2c([C@@H](c3cn(C45CC(C4)C5)nn3)N(C(=O)OCO)c3cc(Cl)c4ncc(C#N)c(NCC(C)(C)C)c4c3)cccc2c1=O` [Intermediate A], under setting [1], the AUC0-72 h result was “BLQ”.

Values taken from patent US12398160B2, “Cot modulators and methods of use thereof” (Gilead Sciences, Inc., priority 2019, dated 2025).
